Measurements reported in patent publication US20250161238A1, “NMDAR Antagonists Prevent Ageing and Aging-Associated Conditions and Diseases Through Increasing 20S Proteasome Activity” (priority 2022, published 2025).
“Also recorded” adds a separate entry of the source.

Assays:
amyloid = assay: Amyloid staining of mouse tissues; assay type: in vivo; settings: mice at 22 months
From the text: In the next study, the effects of NMDAR blocker on amyloid accumulation in brain, liver, and kidney of mice with the presence of memantine and control mice groups at 22 months were investigated by amyloid staining.
(§1) Whole frozen tissues were sectioned with a microtome and fixed in 4% paraformaldehyde, Tissues were washed in PBS and the individual staining methods used in accordance with the manufacturer's recommendations. Total pixels from fluorescence in the images were quantified using Adobe Photoshop software CS2 (Adobe Systems), and normalized to a nuclear stain.

melanin and lipofuscin = assay: Melanin and lipofuscin staining of mouse tissues; assay type: in vivo; settings: mice at 22 months
From the text: as §1

mice [1] = assay: Open Field Maze (OFM) tests in aged mice; assay type: in vivo
From the text: Another test showing locomotor activity in mice is Open Field Maze (OFM). The OFM is one of the most widely used platforms which allow the researcher to measure behaviors ranging from overall locomotor activity to anxiety-related emotional behaviors. The first and most important specific parameter to measure in the OFM is total ambulatory distance.
(§2) The experimental protocols were approved by the Ethics Committee of Ankara University, Faculty of Medicine, Medical Sciences Experimental Research and Application Center (Date: Dec. 11, 2019 and Decision number: 2019-22-189). Adult (12-mounts-old) C57BL/6 mice (5 for each group) were used. The mice were housed at the Experimental Animal Research Laboratory of Ankara University Faculty of Medicine. Food and water were given without restriction. The ambient temperature was kept at 21±2° C., and locomotor activity tests were performed at this temperature. The animals were housed in a room with a 12-hour light/dark cycle. The procedures in the study were performed in accordance with the Ankara University Animal Care Committee according to international guidelines. Memantine (Sigma-Aldrich) was administered orally at 3 mg/Kg/per day with drinking water of one-year-old mice. Tests related to locomotor activities of the mice were recorded and available.
Open Field Test described firstly Hall for “emotionality” (Hall, 1934). Open Field test is used for anxiety-like behavior (ALB) and locomotor activity. We conducted the test in a hypethral box, which was made of 62×68 cm blueboard. The base of the box was divided into 20 equal rectangles. Animals had placed in the central region of Open Field Test. The first 5 min of the record was used for the analysis of behavioral parameters such as total distance traveled (horizontal locomotor activity), total rearing number (vertical locomotor activity), central zone time (ALB), Central zone Latency (the time of first return to the central region: ALB), central zone entrance (ALB), unsupported rearing (vertical locomotor activity without touch test wall and exploratory behavior, sensitive for ALB), central escape latency (first escape time from central zone: ALB) (Çalιşkan et al, 2019, Çalιşkan et al, 2020).

[2] = target: T1, acid beta-glucosidase (GCase) (Mus musculus, UniProt P17439); settings: in vivo; cited from earlier work
T1 construct: host or cells: mice (in vivo), US 2017/0273917 A1 and Klein et al. 2016
T1 sequence (P17439 20-515): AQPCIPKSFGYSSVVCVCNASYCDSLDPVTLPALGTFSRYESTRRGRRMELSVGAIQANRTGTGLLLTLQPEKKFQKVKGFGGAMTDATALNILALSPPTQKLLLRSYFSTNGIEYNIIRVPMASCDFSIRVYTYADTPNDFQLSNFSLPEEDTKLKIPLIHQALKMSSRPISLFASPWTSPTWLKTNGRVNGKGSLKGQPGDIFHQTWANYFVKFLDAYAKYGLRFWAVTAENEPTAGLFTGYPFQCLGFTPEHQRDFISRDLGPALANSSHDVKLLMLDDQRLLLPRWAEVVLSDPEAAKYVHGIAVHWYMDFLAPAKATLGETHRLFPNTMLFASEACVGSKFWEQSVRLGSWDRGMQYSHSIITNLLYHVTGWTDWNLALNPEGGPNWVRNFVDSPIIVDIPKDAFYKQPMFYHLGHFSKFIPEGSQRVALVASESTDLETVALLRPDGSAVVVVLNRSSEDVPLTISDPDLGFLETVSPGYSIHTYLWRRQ

mice [3] = assay: Kondziela's inverted screen test in aged mice; assay type: in vivo; settings: mice at 22 months
From the text: Kondziela's inverted screen test is one of tests which examine the muscle strength using all four limbs. Four limb-hanging test which is the Kondziella's inverted screen test represents a method to assess muscle strength using all four limbs grip and to determine the general condition during time. […] As a result, the test can provide important information about age-related neuromuscular decline.
as §2
Inverted screen test described firstly Kondizela for muscle strength (Kondizela, 1964). The mouse was put on a center of the rectangular mesh screen (52 cm×32 cm) and the screen was rotated 180° over 2 seconds. The screen was held steadily 40-50 cm above a sawdust surface. Holding time were recorded for a maximum of 5 minutes. The inverted screen was scored previously by Deacon (Falling between 1-10 sec=1 Falling between 11-25 seconds=2 Falling between 26-60 seconds=3 Falling between 61-90 seconds=4 Falling after 90 seconds=5) (Deacon, 2013). According to previous studies, parameters such as Total mobility time % (Gleitz et al, 2017), the latency of falling time, and four limbs griping time (Roemers et al, 2019) were analyzed.

mice [4] = assay: Weight test (forelimb grip) in aged mice; assay type: in vivo; settings: mice at 22 months
From the text: Another grip test that measures muscle strength more finely is forelimb grip strength test. Many biomarkers related to aging have been identified in human. Importantly, the grip tests performed on humans has been defined as a highly predicitive indicator that can show disabilities, diseases and deaths that may occur due to aging (Iconaru et al., 2018; Sousa-Santos and Amaral, 2017) In this test a mouse is held by the middle base of the tail and lower it to allow it to grasp the weight which is a ball of tangled fine gauge stainless steel wire. This test is carried out by increasing the weight, investigating the weight that the mouse can carry or keeping the weight constant and how long the mouse can carry the weight.
The experimental protocols were approved by the Ethics Committee of Ankara University, Faculty of Medicine, Medical Sciences Experimental Research and Application Center (Date: Dec. 11, 2019 and Decision number: 2019-22-189). Adult (12-mounts-old) C57BL/6 mice (5 for each group) were used. The mice were housed at the Experimental Animal Research Laboratory of Ankara University Faculty of Medicine. […] Tests related to locomotor activities of the mice were recorded and available.
Weight test use to measure muscle strength (Deacon, 2013). […] The experiment was recorded by camera for a maximum of 5 minutes. Total griping time was evaluated.

mice with GD symptoms = settings: cited from earlier work
[5] = animals studies; cited from earlier work

SMILES: CC12CC3CC(C)(C1)CC(N)(C3)C2 [memantine, 3,5-dimethyladamantan-1-amine]
- amount of amyloid in brain tissue (amyloid): most significant difference
- amount of amyloid in liver and kidney (amyloid): statistically significant decrease
- amount of lipofuscin (liver) (melanin and lipofuscin): statistically decreased
- amount of melanin (skin) (melanin and lipofuscin): statistically decreased
- Central zone time (mice [1]; 5-minute movements): 4 times
- Central latency time (mice [1]; P 0.07): differed at least twice
- Central zone entrance (mice [1]; P 0.08): differed at least twice
- Central escape latency (mice [1]; P 0.4): differed at least twice
- total ambulatory distance (mice [1]; five minute recordings): nearly two times more
- Peripheral zone time (mice [1]; mouse, in vivo): mice not receiving memantine remained in the peripheral regions more
- total rearing activity (mice [1]; mouse, in vivo): twice as much rearing activity
- Gcase inhibition and level of Gcase substrates GlcCer and GSLs [2]: no effect
- four fingers grip time (mice [3]): more than two times
- mobility time (mice [3]): more than twice as much
- time in the inverted frame (latency of falling, holding time) (mice [3]): twice as long
- forelimb grip: time holding a fixed weight (mice [4]): four times longer
- life span of mice with Gaucher disease symptoms (mice with GD symptoms; A/J, C3H/HeJ, DBA/2J, C57BL6/JolaHsd, CBE 25 mg/kg day): dramatically extended; also recorded: extend the lifespan
- life span with memantine dose increased by 10 fold (mice with GD symptoms; mouse, in vivo): increases the life span of mice even more
- induction of HSP, neuronal vacuolization and necrosis [5]: No induction
